Broadly, the IC50 is the concentration that inhibits the measured activity by half.

The source of these data is patent US12637433B2, “Histone deacetylase inhibitors” (THE UNIVERSITY OF QUEENSLAND, priority 2020, dated 2026).

Read-outs that look alike come from different tables or passages of the source. Some results are limits rather than exact numbers.

Type in all cases: biochemical
For one assay, the target named is T1, human HDAC7 enzyme (Homo sapiens, UniProt Q8WUI4).
T1 construct: purchased Reaction Biology Corp
Kind of assay: Human HDAC7 enzyme assay (Class IIa HDACs). The following applies: Table 8; recombinant human HDAC7.

For the next assay, the target named is T2, human HDAC1 enzyme (Homo sapiens, UniProt Q13547).
T2 construct: purchased BPS Bioscience
Description: Human HDAC1 enzyme assay (Class I HDACs). The method, then:
The inhibitory effect of compounds on HDAC1 activity was assessed in vitro using an optimised assay performed in black/flat black wall 384-well plate (Corning Inc.). All reagents and compounds were prepared in HDAC1 assay buffer (25 mM Tris-HCl, 137 mM NaCl, 2.7 mM KCl, 1 mM MgCl2·H2O and 0.1 mg/mL bovine serum albumin; pH 8). Various concentrations of inhibitor were pre-incubated with 50 ng/mL human HDAC1 enzyme (BPS Bioscience) for 30 min at room temperature on a plate shaker. Substrate (Leu(Ac)-Gly-Lys(Ac)-AMC, 12 μM) were then added and incubated for 90 min at 37° C. in the dark. The enzymatic reaction was then incubated with the developer solution (1 mg/mL trypsin and 25 μM SAHA) for 15-20 min at room temperature. Fluorescence intensity was measured using PHERAstar plate reader (BMG Labtech) at 350 nm excitation and 460 nm emission.
(§1) Data analysis: Triplicate measurements were made for each data point and error bars represent mean±SEM of three independent experiments. All data were plotted and analysed using GraphPad Prism Version 6.0d for Mac OS X (GraphPad Software). Dose Response Curves plotted using 4 parameters logistic model.

A further assay addresses T3, human HDAC6 enzyme (Homo sapiens, UniProt Q9UBN7).
T3 construct: purchased Cayman Chemical
Kind of assay: Human HDAC6 enzyme assay (Class IIb HDACs). The following applies: Table 9; recombinant human HDAC. The method, then:
The inhibitory effect of compounds on HDAC6 activity was assessed in vitro using an optimised assay performed in black/flat black wall 384-well plate (Corning Inc.). All reagents and compounds were prepared in HDAC assay buffer (25 mM Tris-HCl, 137 mM NaCl, 2.7 mM KCl, 1 mM MgCl2·H2O and 0.1 mg/mL bovine serum albumin; pH 8). Various concentrations of inhibitor were pre-incubated with 100 ng/ml human HDAC6 enzyme (Cayman Chemical) for 15 min at room temperature on a plate shaker. Substrate (Boc-Lys(Ac)-AMC, 25 μM) were then added and incubated for 60 min at 37° C. in the dark. The enzymatic reaction was then incubated with the developer solution (1 mg/mL trypsin and 10 μM SAHA) for 15-20 min at room temperature. Fluorescence intensity was measured using PHERAstar plate reader (BMG Labtech) at 350 nm excitation and 460 nm emission.
as §1

The next assay has as its target HDAC5 (Homo sapiens, UniProt Q9UQL6). Description: Isoform selectivity, HDAC5 inhibition. The conditions noted are these: Table 9; recombinant human HDAC; read-out: IC50, Class IIa HDAC5.
The next assay concerns the target HDAC9 (Homo sapiens, UniProt Q9UKV0). Description: Isoform selectivity, HDAC9 inhibition. The following applies: Table 9; recombinant human HDAC; read-out: IC50, Class IIa HDAC9.
The next assay deals with HDAC4 (Homo sapiens, UniProt P56524). Kind of assay: Isoform selectivity, HDAC4 inhibition. The conditions noted are these: Table 9; recombinant human HDAC; read-out: IC50, Class IIa HDAC4.
[1] abbreviates: Table 8, recombinant human HDAC1, read-out: IC50 (nM) (HDAC1).
Where [2] appears, read: Table 9, recombinant human HDAC, read-out: IC50, Class I HDAC1.

HDAC9, sequence (Q9UKV0 whole entry, canonical isoform): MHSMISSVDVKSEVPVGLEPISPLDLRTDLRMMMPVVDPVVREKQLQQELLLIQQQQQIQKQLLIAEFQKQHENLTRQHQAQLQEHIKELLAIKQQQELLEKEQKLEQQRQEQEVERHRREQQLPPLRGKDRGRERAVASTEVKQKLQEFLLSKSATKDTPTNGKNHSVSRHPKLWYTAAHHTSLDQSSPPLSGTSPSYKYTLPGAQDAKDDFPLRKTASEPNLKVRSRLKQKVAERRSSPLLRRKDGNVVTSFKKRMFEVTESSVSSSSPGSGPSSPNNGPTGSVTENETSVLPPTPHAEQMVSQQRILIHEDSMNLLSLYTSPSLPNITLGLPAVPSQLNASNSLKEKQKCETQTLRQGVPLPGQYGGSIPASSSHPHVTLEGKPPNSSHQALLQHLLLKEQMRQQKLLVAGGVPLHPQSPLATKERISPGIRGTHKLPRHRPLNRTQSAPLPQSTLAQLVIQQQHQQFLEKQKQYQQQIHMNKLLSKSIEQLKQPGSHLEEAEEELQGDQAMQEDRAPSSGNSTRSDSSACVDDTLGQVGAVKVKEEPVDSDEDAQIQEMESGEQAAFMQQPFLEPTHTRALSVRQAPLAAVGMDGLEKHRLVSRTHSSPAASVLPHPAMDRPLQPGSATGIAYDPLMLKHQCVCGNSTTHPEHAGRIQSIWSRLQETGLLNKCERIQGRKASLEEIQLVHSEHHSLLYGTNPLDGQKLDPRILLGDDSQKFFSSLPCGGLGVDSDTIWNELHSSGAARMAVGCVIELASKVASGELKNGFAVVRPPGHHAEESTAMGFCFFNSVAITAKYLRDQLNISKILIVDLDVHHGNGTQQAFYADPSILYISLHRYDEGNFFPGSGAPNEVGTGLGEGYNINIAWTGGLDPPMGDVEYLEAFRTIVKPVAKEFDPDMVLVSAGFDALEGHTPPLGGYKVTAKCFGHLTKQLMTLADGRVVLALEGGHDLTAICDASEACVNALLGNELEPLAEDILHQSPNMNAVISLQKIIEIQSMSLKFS
HDAC5, sequence (Q9UQL6 whole entry, canonical isoform): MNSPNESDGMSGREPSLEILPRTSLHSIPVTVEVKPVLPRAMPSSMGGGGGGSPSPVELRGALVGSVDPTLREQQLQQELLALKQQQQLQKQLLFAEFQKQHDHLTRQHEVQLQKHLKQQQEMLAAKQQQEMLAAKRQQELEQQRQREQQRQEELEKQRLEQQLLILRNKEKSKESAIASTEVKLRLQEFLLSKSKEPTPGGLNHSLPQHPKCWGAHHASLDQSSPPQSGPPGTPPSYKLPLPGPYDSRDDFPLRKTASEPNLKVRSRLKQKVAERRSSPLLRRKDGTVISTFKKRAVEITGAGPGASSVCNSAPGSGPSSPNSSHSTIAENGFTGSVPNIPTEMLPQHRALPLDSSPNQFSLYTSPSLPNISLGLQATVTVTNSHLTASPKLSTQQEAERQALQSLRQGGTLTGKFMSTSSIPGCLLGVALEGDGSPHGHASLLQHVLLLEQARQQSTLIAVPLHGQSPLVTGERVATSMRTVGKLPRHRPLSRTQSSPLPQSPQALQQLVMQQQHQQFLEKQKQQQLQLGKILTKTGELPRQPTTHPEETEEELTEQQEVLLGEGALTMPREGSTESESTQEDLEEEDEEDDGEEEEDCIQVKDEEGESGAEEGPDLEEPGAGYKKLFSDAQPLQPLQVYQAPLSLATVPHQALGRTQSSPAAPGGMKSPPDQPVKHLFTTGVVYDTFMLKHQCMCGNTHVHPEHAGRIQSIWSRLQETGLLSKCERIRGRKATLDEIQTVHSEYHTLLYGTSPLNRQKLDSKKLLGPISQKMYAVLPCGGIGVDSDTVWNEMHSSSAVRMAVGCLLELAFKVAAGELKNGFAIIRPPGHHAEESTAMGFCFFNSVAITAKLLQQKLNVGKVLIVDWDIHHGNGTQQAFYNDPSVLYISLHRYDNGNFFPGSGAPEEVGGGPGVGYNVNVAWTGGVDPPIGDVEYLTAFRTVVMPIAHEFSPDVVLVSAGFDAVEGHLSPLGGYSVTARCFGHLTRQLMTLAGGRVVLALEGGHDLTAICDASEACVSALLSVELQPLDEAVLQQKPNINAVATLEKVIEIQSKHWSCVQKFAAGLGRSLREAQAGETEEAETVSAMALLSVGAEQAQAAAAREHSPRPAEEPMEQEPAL
T1 sequence (Q8WUI4 whole entry): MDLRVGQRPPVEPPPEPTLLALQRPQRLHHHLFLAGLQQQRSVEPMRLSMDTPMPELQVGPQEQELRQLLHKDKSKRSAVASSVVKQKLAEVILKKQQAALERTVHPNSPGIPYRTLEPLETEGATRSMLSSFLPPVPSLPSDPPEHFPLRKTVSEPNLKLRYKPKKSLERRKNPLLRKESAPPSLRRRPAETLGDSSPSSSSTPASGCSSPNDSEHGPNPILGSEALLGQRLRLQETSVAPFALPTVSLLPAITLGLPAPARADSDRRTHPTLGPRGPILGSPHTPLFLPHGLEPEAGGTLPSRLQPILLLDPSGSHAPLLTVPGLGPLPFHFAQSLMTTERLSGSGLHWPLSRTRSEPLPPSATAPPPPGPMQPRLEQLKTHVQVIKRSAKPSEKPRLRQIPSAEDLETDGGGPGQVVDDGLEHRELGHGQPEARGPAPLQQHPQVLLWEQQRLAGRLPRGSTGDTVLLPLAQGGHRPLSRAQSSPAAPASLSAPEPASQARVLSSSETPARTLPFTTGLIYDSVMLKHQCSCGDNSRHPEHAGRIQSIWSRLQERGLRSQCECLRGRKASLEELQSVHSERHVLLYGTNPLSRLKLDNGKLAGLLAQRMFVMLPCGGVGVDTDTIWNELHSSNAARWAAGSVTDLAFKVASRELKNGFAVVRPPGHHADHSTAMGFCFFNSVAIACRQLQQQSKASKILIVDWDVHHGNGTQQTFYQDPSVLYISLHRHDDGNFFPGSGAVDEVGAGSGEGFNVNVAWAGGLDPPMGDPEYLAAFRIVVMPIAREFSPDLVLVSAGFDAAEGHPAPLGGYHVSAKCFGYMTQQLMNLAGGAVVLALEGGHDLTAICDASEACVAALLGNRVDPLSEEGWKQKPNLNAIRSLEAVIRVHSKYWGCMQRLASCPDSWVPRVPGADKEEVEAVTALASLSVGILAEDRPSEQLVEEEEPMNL
HDAC4, sequence (P56524 whole entry, canonical isoform): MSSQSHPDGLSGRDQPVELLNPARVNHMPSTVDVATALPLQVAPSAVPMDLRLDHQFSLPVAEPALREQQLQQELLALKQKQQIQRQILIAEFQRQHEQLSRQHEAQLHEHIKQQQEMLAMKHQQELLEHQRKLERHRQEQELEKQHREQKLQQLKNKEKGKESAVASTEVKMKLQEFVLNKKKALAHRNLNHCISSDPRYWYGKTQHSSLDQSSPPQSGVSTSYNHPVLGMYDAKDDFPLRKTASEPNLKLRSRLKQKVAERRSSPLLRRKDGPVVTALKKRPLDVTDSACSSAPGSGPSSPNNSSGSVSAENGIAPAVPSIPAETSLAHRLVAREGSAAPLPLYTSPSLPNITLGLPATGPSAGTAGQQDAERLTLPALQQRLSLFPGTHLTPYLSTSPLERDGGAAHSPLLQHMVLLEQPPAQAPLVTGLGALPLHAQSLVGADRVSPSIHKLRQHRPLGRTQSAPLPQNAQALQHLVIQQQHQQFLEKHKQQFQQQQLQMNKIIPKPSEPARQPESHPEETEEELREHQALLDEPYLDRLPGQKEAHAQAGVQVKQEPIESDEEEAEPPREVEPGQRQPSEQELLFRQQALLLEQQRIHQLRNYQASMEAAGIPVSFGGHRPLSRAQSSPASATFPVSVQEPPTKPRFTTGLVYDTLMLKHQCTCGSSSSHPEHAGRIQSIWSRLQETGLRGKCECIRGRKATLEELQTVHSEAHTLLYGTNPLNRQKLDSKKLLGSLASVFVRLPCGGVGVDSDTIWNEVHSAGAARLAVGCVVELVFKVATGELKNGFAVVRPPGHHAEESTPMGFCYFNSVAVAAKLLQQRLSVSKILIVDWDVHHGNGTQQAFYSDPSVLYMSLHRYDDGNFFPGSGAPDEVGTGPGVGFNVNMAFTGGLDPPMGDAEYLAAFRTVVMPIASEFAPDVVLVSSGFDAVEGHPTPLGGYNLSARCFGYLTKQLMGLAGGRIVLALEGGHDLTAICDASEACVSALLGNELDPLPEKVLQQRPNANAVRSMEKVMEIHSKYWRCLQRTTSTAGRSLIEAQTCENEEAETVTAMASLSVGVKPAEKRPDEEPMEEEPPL
T2 sequence (Q13547 whole entry): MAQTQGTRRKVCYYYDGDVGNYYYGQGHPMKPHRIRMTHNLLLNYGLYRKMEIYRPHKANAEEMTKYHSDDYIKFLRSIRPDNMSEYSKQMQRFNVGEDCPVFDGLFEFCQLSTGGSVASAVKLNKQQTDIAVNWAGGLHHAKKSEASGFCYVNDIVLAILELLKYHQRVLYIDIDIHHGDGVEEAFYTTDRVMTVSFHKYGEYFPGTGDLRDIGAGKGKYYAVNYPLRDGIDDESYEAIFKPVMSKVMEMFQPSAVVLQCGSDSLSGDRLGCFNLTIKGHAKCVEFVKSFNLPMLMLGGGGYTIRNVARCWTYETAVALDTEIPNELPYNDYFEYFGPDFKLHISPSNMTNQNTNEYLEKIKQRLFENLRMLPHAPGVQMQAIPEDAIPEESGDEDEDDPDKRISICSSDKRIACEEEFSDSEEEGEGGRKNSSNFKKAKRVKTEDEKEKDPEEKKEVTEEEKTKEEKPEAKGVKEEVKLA

As for `O=C(NCc1ccc(C(=O)NO)c(-c2ccccc2)c1)c1cc2ccccc2[nH]1` [Example 24], the results for the IC50 on human HDAC7 enzyme and on human HDAC1 enzyme (setting [1]) were 59 ± 10 nM and greater than 10000 nM, respectively.
In the same order, the values of `O=C(NCc1ccc(C(=O)NO)c(Oc2ccccc2)c1)Nc1cccc2cccnc12` [Example 3, 2-phenoxy-N-hydroxy-4-((3-(quinolin-8-yl)ureido)methyl)benzamide, reference compound] are greater than 10000 nM and 2520 ± 1340 nM.
In the same order, the values of `O=C(NCc1ccc(C(=O)NO)c(-c2ccccc2)c1)Nc1cccc2cccnc12` [Example 2] are 214 ± 54 nM and 2360 ± 452 nM.
In the case of `CC(C)C(C(=O)Nc1ccc(C(=O)NO)c(-c2ccccc2)c1)c1ccccc1` (stereo not drawn) [Example 59], the results for the IC50 on human HDAC7 enzyme and at human HDAC1 enzyme (setting [1]) were 555 ± 334 nM and greater than 10000 nM, respectively.
Regarding `O=C(NO)c1ccc(CN2C(=O)c3ccccc3C2=O)cc1-c1ccccc1` [Example 36], the IC50 on human HDAC6 enzyme came to 5700 nM; at HDAC5, 12 ± 2 nM; on HDAC9, 133 ± 52 nM; at HDAC4, 28 ± 4 nM; at human HDAC1 enzyme (setting [1]), 32000 nM; at human HDAC1 enzyme (setting [2]) it was 32000 nM.
As to `O=C(NO)c1ccc(Cn2c(=O)cc[nH]c2=O)cc1-c1ccccc1` [Example 38], on human HDAC1 enzyme (setting [1]), the IC50 was greater than 10000 nM.
In the case of `CCc1nc2ccccc2c(=O)n1Cc1ccc(C(=O)NO)c(-c2ccccc2)c1` [Example 35], on human HDAC1 enzyme (setting [1]), the IC50 worked out at 5280 ± 3490 nM.
Regarding `NC(=O)c1ccc(Nc2ccc(C(=O)NO)c(-c3ccccc3)c2)cc1` [Example 79], the IC50 was 43 ± 9 nM at human HDAC7 enzyme and greater than 10000 nM on human HDAC1 enzyme (setting [1]).
For `O=C(NO)c1ccc(CN2C(=O)CCC2=O)cc1-c1ccccc1` [Example 51], on human HDAC1 enzyme (setting [1]), the half-maximal inhibitory concentration (IC50) was greater than 20000 nM.
On the same count and under the same terms, to `O=C(NO)c1ccc(CN2Cc3ccccc3C2=O)cc1-c1ccccc1` [Example 49] belongs 33000 nM; to `Cc1cc(=O)n(Cc2ccc(C(=O)NO)c(-c3ccccc3)c2)c(C)n1` [Example 45], greater than 10000 nM; to `O=C(NO)c1ccc(Cn2cnc3ccccc3c2=O)cc1-c1ccccc1` [Example 34], 3190 ± 816 nM.
Take `O=C(NO)c1ccc(CN2C(=O)c3cccc(F)c3C2=O)cc1-c1ccccc1` [Example 55]: the IC50 amounted to 4400 nM at human HDAC6 enzyme; 16 ± 2 nM at HDAC5; 183 ± 102 nM on HDAC9; 13 ± 3 nM on HDAC4; 27000 nM on human HDAC1 enzyme (setting [1]); 27000 nM on human HDAC1 enzyme (setting [2]).
Regarding `CN(C)c1ccc(C2(C(=O)Nc3ccc(C(=O)NO)c(-c4ccccc4)c3)CCCC2)cc1` [Example 64], the 50% inhibitory concentration (IC50) was 556 ± 317 nM on human HDAC7 enzyme and greater than 10000 nM at human HDAC1 enzyme (setting [1]).
Consider `O=C(NCc1ccc(C(=O)NO)c(-c2ccccc2)c1)c1ccccc1F` [Example 50], for which, on human HDAC1 enzyme (setting [1]), the IC50 worked out at 16000 nM.
Still for that read-out and setting: to `O=C(NO)c1ccc(CN2C(=O)c3ccncc3C2=O)cc1-c1ccccc1` [Example 54] belongs greater than 20000 nM.
For the molecule `Cc1nc2ccccc2c(=O)n1Cc1ccc(C(=O)NO)c(-c2ccccc2)c1` [compound 12], the IC50 on human HDAC6 enzyme stood at 1100 nM; at HDAC5, 9 ± 2 nM; on HDAC9 it was 17 ± 3 nM; at human HDAC7 enzyme it was 7.3 ± 1.2 nM; on HDAC4, 42 ± 7 nM; at human HDAC1 enzyme (setting [1]), 2200 nM.
On to `O=C(NO)c1ccc(NC(=O)C2(c3ccc(Br)cc3)CCCC2)cc1-c1ccccc1` [Example 65], for which the results for the IC50 at human HDAC7 enzyme and on human HDAC1 enzyme (setting [1]) were 1210 ± 700 nM and 4900 ± 1710 nM, respectively.
In the same order, the values of `O=C(NCc1ccc(C(=O)NO)c(-c2ccccc2)c1)c1ccc[nH]1` [Example 23] are 81 ± 14 nM and greater than 10000 nM.
Turning to `O=C(NO)c1ccc(CN2C(=O)c3cccnc3C2=O)cc1-c1ccccc1` [Example 53], at human HDAC1 enzyme (setting [1]), the IC50 was 28000 nM.
In the case of `O=C(NO)c1ccc(CN2C(=O)c3ccccc3S2(=O)=O)cc1-c1ccccc1` [Example 56], the IC50 on human HDAC6 enzyme was 5500 nM; on HDAC5, 8 ± 1 nM; on HDAC9, 93 ± 44 nM; at HDAC4 it was 48 ± 6 nM; at human HDAC1 enzyme (setting [1]), 4900 nM; at human HDAC1 enzyme (setting [2]), 4900 nM.
As to `Cc1cc(F)ccc1-c1cc(Cn2c(C)nc3ccccc3c2=O)ccc1C(=O)NO` [Example 13], the values for the IC50 on human HDAC7 enzyme and on human HDAC1 enzyme (setting [1]) were 12 ± 1.2 nM and 4210 ± 1760 nM, respectively.
Take `COC(=O)c1ccc(CNCc2ccc(C(=O)NO)c(-c3ccccc3)c2)cc1-c1ccccc1` [Example 32, N-(4-hydroxyaminocarbonyl-3-phenylbenzyl)-N-(4-methoxycarbonyl-3-phenylbenzyl)amine]: the IC50 at human HDAC7 enzyme came out at 137 ± 30 nM.
On the same count and under the same terms, to `CC1C(=O)NC(Cc2ccccc2)C(=O)N1Cc1ccc(C(=O)NO)c(-c2ccccc2)c1` (mixture of isomers) [Example 96] belongs 322 ± 109 nM; to `O=C(Nc1ccc(C(=O)NO)c(-c2ccccc2)c1)c1ccccc1` [Example 60], 325 nM; to `O=C(NO)c1ccc(Nc2cc(F)cc(F)c2)cc1-c1ccccc1` [Example 71], 206 nM.
The same measure, in the same setting: for `O=C(NO)c1ccc(C(n2cc(-c3ccccc3)nn2)n2cc(-c3ccccc3)nn2)cc1-c1ccccc1` [Example 58] the value was 5 ± 1 nM.
For `Cc1nc2ccccc2c(=O)n1Cc1ccc(C(=O)NO)c(-c2ccc(F)cc2)c1` [Example 14], the IC50 at human HDAC6 enzyme came to 1300 ± 480 nM; on HDAC5, 8 ± 1 nM; at HDAC9, 15 ± 3 nM; on human HDAC7 enzyme, 6.4 ± 0.8 nM; on HDAC4, 22 ± 3 nM; at human HDAC1 enzyme (setting [1]), 3200 nM.
For the molecule `O=C(NO)c1ccc(Nc2ccc(Cl)cc2)cc1-c1ccccc1` [Example 68], the IC50 at human HDAC7 enzyme stood at 178 nM.
Take `O=C(NCc1ccc(C(=O)NO)c(Br)c1)Nc1cccc2cccnc12` [Example 1, 2-bromo-N-hydroxy-4-((3-(quinolin-8-yl)ureido)methyl)benzamide, reference compound]: the IC50 on human HDAC7 enzyme was greater than 10000 nM; at human HDAC1 enzyme (setting [1]) it was 3840 ± 1630 nM.
Take `O=C(NO)c1ccc(NC(=O)C2(c3c[nH]c(-c4ccc([N+](=O)[O-])cc4)n3)CCCC2)cc1-c1ccccc1` [Example 85]: the IC50 at human HDAC7 enzyme came out at 625 ± 318 nM.
